Literature values, collected in US11865103B2, “Methods of treating disorders associated with glycosylation defective proteins” (CASE WESTERN RESERVE UNIVERSITY, priority 2016, dated 2024).

Test system: TgAC1; Clrn1^N48K/N48K mouse model
Details: cited from earlier work

CC(C)(O)Cn1nc(-c2ccccc2)c2c(Cl)c(-c3ccccc3)nnc21 [BF844]
Effect on hearing loss: mitigate hearing loss
